Experimental data from ChEMBL document CHEMBL4725412, “Augmenting the Activity of Macrolide Adjuvants against Acinetobacter baumannii” (2020).

Legend:
Type in all cases: functional
Acinetobacter baumannii [1] = experiment: Potentiation of clarithromycin-induced antibacterial activity against Acinetobacter baumannii AB5075 assessed as fold reduction in clarithromycin MIC at 5 uM incubated for 16 hrs in presence of clarithromycin by broth microdilution method
Acinetobacter baumannii [2] = experiment: Antibacterial activity against Acinetobacter baumannii AB5075 assessed as reduction in microbial growth incubated for 16 hrs by broth microdilution method
Acinetobacter baumannii [3] = experiment: Antibacterial activity against Acinetobacter baumannii 4456 assessed as reduction in microbial growth incubated for 16 hrs by broth microdilution method
Acinetobacter baumannii [4] = experiment: Antibacterial activity against Acinetobacter baumannii 4795 assessed as reduction in microbial growth incubated for 16 hrs by broth microdilution method
Acinetobacter baumannii [5] = experiment: Potentiation of clarithromycin-induced antibacterial activity against Acinetobacter baumannii 4025 assessed as fold reduction in clarithromycin MIC at 7.5 uM incubated for 16 hrs by broth microdilution method
Acinetobacter baumannii [6] = experiment: Potentiation of clarithromycin-induced antibacterial activity against Acinetobacter baumannii 4052 assessed as fold reduction in clarithromycin MIC at 7.5 uM incubated for 16 hrs by broth microdilution method
Acinetobacter baumannii [7] = experiment: Potentiation of clarithromycin-induced antibacterial activity against Acinetobacter baumannii 4878 assessed as fold reduction in clarithromycin MIC at 7.5 uM incubated for 16 hrs by broth microdilution method
Acinetobacter baumannii [8] = experiment: Potentiation of clarithromycin-induced antibacterial activity against Acinetobacter baumannii 4957 assessed as fold reduction in clarithromycin MIC at 7.5 uM incubated for 16 hrs by broth microdilution method
Acinetobacter baumannii [9] = experiment: Potentiation of clarithromycin-induced antibacterial activity against Acinetobacter baumannii 5256 assessed as fold reduction in clarithromycin MIC at 7.5 uM incubated for 16 hrs by broth microdilution method
Acinetobacter baumannii [10] = experiment: Potentiation of clarithromycin-induced antibacterial activity against Acinetobacter baumannii AB5075 assessed as clarithromycin MIC at 15 uM incubated for 16 hrs by broth microdilution method (reference value: […] ug/ml)

- MIC (Acinetobacter baumannii [2]): 50 µM
- MIC (Acinetobacter baumannii [3]): 25 µM
- MIC (Acinetobacter baumannii [4]): 25 µM
- MIC (Acinetobacter baumannii [10]): 0.125 µg/mL
SMILES: Cl.Nc1nc(-c2ccc(NC(=O)Nc3cc(Br)cc(Br)c3)cc2)c[nH]1
- fold change (FC) (Acinetobacter baumannii [1]): 8
- fold change (FC) (Acinetobacter baumannii [5]): 16
- fold change (FC) (Acinetobacter baumannii [6]): 16
- fold change (FC) (Acinetobacter baumannii [7]): 16
- fold change (FC) (Acinetobacter baumannii [8]): 16
- fold change (FC) (Acinetobacter baumannii [9]): 16
